From publication PMC10410513, “Differential roles for ACBD4 and ACBD5 in peroxisome–ER interactions and lipid metabolism” (The Journal of Biological Chemistry, 2023)

Experiments:
ACBD4 = target: T1, ACBD4 (Homo sapiens, UniProt Q8NC06); assay: competition with […]C18:1-CoA, pull-down on Ni-NTA resin; format: binding; conditions: 2 uM protein, 5 uM [14C]C18:1-CoA, 0.2-20 uM competitor
T1 construct: recombinant MBP-His tagged, E. coli, amylose resin purified, tag kept
T1 sequence (Q8NC06 1-305 isoform Q8NC06-2): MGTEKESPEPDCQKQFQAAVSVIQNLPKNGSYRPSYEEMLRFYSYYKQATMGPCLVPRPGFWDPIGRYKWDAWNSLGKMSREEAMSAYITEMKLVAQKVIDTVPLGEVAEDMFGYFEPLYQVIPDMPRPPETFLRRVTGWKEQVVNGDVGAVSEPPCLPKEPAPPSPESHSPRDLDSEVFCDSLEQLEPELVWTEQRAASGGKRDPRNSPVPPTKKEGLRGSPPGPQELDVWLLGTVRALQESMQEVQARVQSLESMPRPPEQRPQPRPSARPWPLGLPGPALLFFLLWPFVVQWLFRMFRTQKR

ACBD5 = target: T2, ACBD5 (Homo sapiens, UniProt Q5T8D3); assay: as above; format: binding; conditions: 2 uM protein, 5 uM [14C]C18:1-CoA, 0.2-20 uM competitor
T2 construct: recombinant MBP-His tagged, E. coli, amylose resin purified, tag kept
T2 sequence (Q5T8D3 1-490 isoform Q5T8D3-2): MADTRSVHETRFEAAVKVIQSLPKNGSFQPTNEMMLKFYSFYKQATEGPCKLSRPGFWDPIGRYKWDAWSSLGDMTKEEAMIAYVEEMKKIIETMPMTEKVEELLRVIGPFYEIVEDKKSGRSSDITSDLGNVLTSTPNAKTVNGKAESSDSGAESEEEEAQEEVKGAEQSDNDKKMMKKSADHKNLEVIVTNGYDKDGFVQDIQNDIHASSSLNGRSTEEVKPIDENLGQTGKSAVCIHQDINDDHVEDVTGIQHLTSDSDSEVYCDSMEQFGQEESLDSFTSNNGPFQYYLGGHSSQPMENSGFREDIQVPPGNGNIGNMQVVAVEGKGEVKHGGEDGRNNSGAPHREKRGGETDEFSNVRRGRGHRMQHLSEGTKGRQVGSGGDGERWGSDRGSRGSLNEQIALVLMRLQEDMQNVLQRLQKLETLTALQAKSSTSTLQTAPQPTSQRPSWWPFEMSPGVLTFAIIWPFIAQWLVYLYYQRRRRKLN

CCCCCCCCCCCCCCCCCCCCCCCC(=O)SCCNC(=O)CCNC(=O)[C@H](O)C(C)(C)COP(=O)(O)OP(=O)(O)OC[C@H]1O[C@@H](n2cnc3c(N)ncnc32)[C@H](O)[C@@H]1OP(=O)(O)O [C24-CoA]
competition with [14C]C18:1-CoA, pull-down on Ni-NTA resin (ACBD4): ACBD4, which displayed a similar preference for long and very-long acyl-CoAs | competition with [14C]C18:1-CoA, pull-down on Ni-NTA resin (ACBD5): a stronger preference for the very-long-chain C24-CoA compared to the two long-chain acyl-CoAs
